# Test results taken from US20240158418A1 (C4 Therapeutics, Inc., priority 2021, published 2024).
# Molecular target: T1, mutant EGFR-L858R-T790M (Homo sapiens, UniProt P00533, L858R/T790M)
# T1 construct: female BALB/c nude mice bearing NCI-H1975 NSCLC tumors; from tissue; host or cells: NCI-H1975 subcutaneous xenograft tumours from female BALB/c nude mice
# Test: Mutant EGFR protein in NCI-H1975 tumors after single oral dose (western blot)
# Format: in vivo, female BALB/c nude mice
# Description: Compound 1 was administered as a single oral (PO) dose at 10, 25, or 50 mg/kg to female BALB/c nude mice with NCI-H1975 tumors. At 4h, 6h or 12h tumors were harvested and the protein expression of mutant EGFR-L858R and phospho-EGFR was measured by western blot.
# A xenograft study was conducted in female BALB/c nude mice bearing NCI-H1975 NSCLC tumors. Female nude mice were inoculated subcutaneously in the right flank with 5×10^6 tumors cells in 0.1 mL of PBS. Tumor volume was measured twice weekly in two dimensions using calipers, and volume (mm^3) was calculated using the formula: V=0.5 a×b2 where a and b are the long and short diameters of the tumor in mm, respectively. […]
# All agents were administered to mice bearing NCI-H1975 tumors on day 0 as a single oral (PO) dose. […] Protein concentration was quantified using a Pierce™ BCA Protein Assay Kit, samples were reduced, and equal protein amounts were then loaded onto a western blot gel for analysis. Tumors were analyzed for EGFR Receptor L858R Mutant Specific (CST, 3197) or Phospho-EGFR Receptor Tyr1068 (CST, 2234) expression. The intensity of individual bands was measured for data analysis using Image Studio software. Protein expression was quantitated in relation to the reference protein, alpha-tubulin, to control for total protein concentration. […]
structure (smiles),measurement,setting,value
"O=C1CC[C@H](Nc2ccc(N3CCC(O)(CC(=O)N4CC5(C4)CN(c4ccc(-c6cc(F)c7c(c6)C(=O)N(C(C(=O)Nc6nccs6)c6ncn8c6CCC8)C7)cc4)C5)CC3)c(F)c2)C(=O)N1 (stereo partly drawn) [Compound 1, 2-(6,7-dihydro-5H-pyrrolo[1,2-c]imidazol-1-yl)-2-[6-[4-[2-[2-[1-[4-[[(3S)-2,6-dioxo-3-piperidyl]amino]-2-fluoro-phenyl]-4-hydroxy-4-piperidyl]acetyl]-2,6-diazaspiro[3.3]heptan-6-yl]phenyl]-4-fluoro-1-oxo-isoindolin-2-yl]-N-thiazol-2-yl-acetamide]",mutant EGFR degraded in vivo,"after a single oral dose, NCI-H1975 tumors",up to 85%
same,mutant EGFR-L858R protein expression in tumors,"single PO dose 10, 25 or 50 mg/kg, 4, 6 and 12 hours",potent EGFR degradation
